Source: patent publication US9095565B2, “Methods for treating blood disorders” (Phoenicia Biosciences, Inc., priority 2006, dated 2015)

Assays:
γ globin promoter = test: β/γ-globin promoter driven reporter gene assay; assay type: cell-based; settings: Table 2
γ-globin mRNA = γ-globin mRNA by RT-PCR in erythroid colonies cultured from cord blood; assay type: cell-based, human
Experimental: γ-globin mRNA was analyzed in control and treated erythroid colonies cultured from cord blood, by RT-PCR.

γ-globin gene reporter = test: Related study: relative luciferase reporter gene induction; assay type: cell-based
Experimental: (§1) In a related study, the relative luciferase reporter gene induction, γ-globin gene induction, and F cell production was tested for several of the candidate compounds. The relative in vitro γ-globin gene reporter stimulation for the tested compounds was as follows: compound P>M>W=R=Y. The relative in vitro γ-globin gene induction for the tested compounds was as follows: P>R=M>Y>W>. The relative in vitro F-cell production was as follows: W>Y>R>M>P. The relative potency for F-cell production was as follows: R>M>Y>P>W.

γ-globin gene = test: Related study: relative in vitro γ-globin gene induction; assay type: cell-based
Experimental: as §1

F-cell = test: Related study: in vitro F cell production; assay type: cell-based
Experimental: as §1

[1] = system: cells expressing fetal globin (F-cells); test: Experiment 1: proportion of F-cells in hematopoietic colonies by FACScan; assay type: cell-based, human; settings: same low concentrations as for fetal globin mRNA induction
Experimental: (§2) Erythroid burst-forming units (BFU-E) (erythroid progenitors) and colony-forming units granulocyte-macrophage (CFU-GM) (myeloid colonies) were cultured in semi-solid or in two-phase suspension media, with or without hematopoietic growth factors at high levels (e.g., erythropoietin at 3 U/ml) or reduced levels (BFU-E cell proliferation was evaluated by enumeration in colonies developing in the presence of reduced amounts of erythropoietin (0.5 U/ml) rather than 3 U (or 3000 mU)/ml, which is standard for these experimental systems), from cord blood or the peripheral blood of several types of humans. Experiments were carried out on samples derived from 1) β-thalassemia patients who expressed variable levels of fetal globin at baseline (and in untreated control cultures) and represent a variety of potential individual responses, 2) from normal umbilical cord blood samples, which express 40-50% fetal globin at baseline (and in untreated control cultures), 3) from CD34+ cells isolated from normal adult peripheral blood, which expressed low levels of fetal globin in untreated control cultures and at baseline; and 4) from peripheral blood of patients with sickle cell disease who were receiving treatment with hydroxyurea. These biological samples provide a range of potential difficulty in stimulating fetal globin expression in human patients.
Hematopoietic colonies were enumerated with or without (+/−) the test compounds, and compared to colonies which developed in the presence of hematopoietic growth factors alone from the same subject (untreated control colonies), and proportions of cells expressing fetal globin (F-cells) were analyzed by FACScan analysis.

[2] = system: Erythroid colonies (BFU-E); test: Experiment 2: erythroid colonies (BFU-E) cultured from patients with beta thalassemia; assay type: cell-based, human; settings: optimal panel of growth factors
Experimental: as §2
Erythroid colonies were cultured from patients with beta thalassemia, either without any test compounds (Control), only an optimal panel of hematopoietic growth factors, or with one of the test compounds M, P, T, 2-methyl-1-benzofuran-4-carboxylic acid, V, W, X, Y, AK, AC, or AI. […] Colony numbers were increased above the control cultures (% BFU-E/Control) by anywhere from 25% to 230%. Each of the listed test compounds was tested in at least 5 different patients' blood and the differences were statistically significant.

BFU-E = BFU-E cultured from cord blood; assay type: cell-based, human
Experimental: as §2
In a related study, BFU-E cultured from cord blood, was tested with or without compound M, P, R, T, W, Y, Z, AI, F, or 3-(5-chlorothien-3-yl)acrylic acid.

myeloid colonies = test: Experiment 3: myeloid colonies in cord blood cultured without added growth factors; assay type: cell-based, human; settings: no added growth factors
Experimental: as §2
Control colonies were established in cultures with no added growth factors to support myelopoiesis, in Iscove's Modified Dulbecco's Media (IMDM) methylcellulose media with charcoal-absorbed fetal bovine serum, beta mercaptoethanol, BSA.

[3] = system: mice transgenic for the micro-LCR-201 gamma-globin gene promoter; test: γ-globin induction and hematocrit in transgenic mice; assay type: in vivo, mouse; settings: IP once/day, 5 days/week, 2 weeks
Experimental: Transgenic mice containing the human fetal globin gene and a micro-Locus Control Region (LCR) received no treatment (controls) or were treated with test compounds and γ-globin mRNA was analyzed by RT-PCR. Compound W was administered to mice transgenic for the micro-LCR-201 gamma-globin gene promoter, by IP injection once/day for 5 days/week for 2 weeks, and gamma-globin mRNA was assayed by qPCR. Hematocrit was analyzed once per week. A significant difference in expression of human fetal globin mRNA and in hematocrit between Control and compound W-treated mice was found in initial experiments as summarized in Table 4 below.

[4] = system: erythroid (red blood cell) colonies; test: Experiment 5: growth of erythroid colonies from cord blood with standard growth factors (EPO and Il-3); assay type: cell-based, human
Experimental: In an additional study, comparative growth of erythroid (red blood cell) colonies cultured from cord blood samples was evaluated with the addition of growth factors alone or with the addition of test compounds.
Control and test cultures were established from the same samples with the same growth factors (EPO and II-3) with addition of test compounds. The compounds tested were M, P, R, T, W, Y, Z, AI, F and 3-(5-chlorothien-3-yl)acrylic acid. Two compounds previously shown as positive proliferative agents were included for comparison.

Erythroid colonies = test: Experiment 6: erythroid colony growth from sickle cell patients receiving hydroxyurea; assay type: cell-based, human
Experimental: Erythroid colonies from the peripheral blood of 4 patients with sickle cell disease who were receiving treatment with Hydroxyurea (HU), a chemotherapeutic agent which suppresses marrow growth and reduces red blood cell production, were cultured alone or with added test compounds M, P, 2-methyl-1-benzofuran-4-carboxylic acid, V, W, Y (racemic mixture) or AI. L-arginine was added as a neutral control, and had no effect on numbers of erythroid colonies.
2-methyl-1-benzofuran-4-carboxylic acid and compound V require additional samples for statistical evaluation, but had positive effects in 3/3 different patients' cultures. These findings indicate that the test compounds stimulate erythroid cell production particularly in conditions of anemia and bone marrow suppression.

γ-globin = settings: cited from earlier work

Molecule	% γ globin promoter induction (above untreated control) (γ globin promoter)	Concentration required (γ-globin mRNA; increase in fetal globin mRNA, erythroid colonies from cord blood) [µM]	No. of Positive responses (γ-globin mRNA; positive cultures/cultures tested)	relative in vitro γ-globin gene reporter stimulation (rank order) (γ-globin gene reporter)	relative in vitro γ-globin gene induction (rank order) (γ-globin gene)	relative in vitro F-cell production (rank order) (F-cell)	relative potency for F-cell production (rank order) (F-cell)	proportion of F-cells above the percentage in untreated controls [1]	number of erythroid colonies compared to matched control cultures [2]	numbers of BFU-E colonies compared to controls (BFU-E)	production of myeloid colonies compared to untreated control (myeloid colonies)	Hematocrit ([3]; untreated 51 +/− 0.45)	γ-globin mRNA/S16 (mean relative units) ([3]; untreated 1508)	erythroid colony numbers [4]	effect on numbers of erythroid colonies compared to control (Erythroid colonies)	% Change from Control (erythroid colony growth) (Erythroid colonies; micromolar: L-arginine 150, AB 100, PA 100, M 1, P 100, 2-methyl-1-benzofuran-4-carboxylic acid 10, V 10, W 40, Y racemic mix 50, Al 30, Hydroxyurea 20) [%]	Number with effects/No effect (Erythroid colonies; patients' cultures, same concentrations as % Change)	levels required in vitro (γ-globin) [µM]
O=C(O)c1cccc(Cn2cc([N+](=O)[O-])cn2)c1 [Compound W]	** (‘**’ indicates a 100%-200% increase)	40	5/6	P>M>W=R=Y	P>R=M>Y>W	W>Y>R>M>P	R>M>Y>P>W	significant increases	increased the number of colonies	increased numbers of colonies	stimulated production of myeloid colonies	57 +/− 3	3418	–	–	–	–	–
arginine butyrate	–	–	–	–	–	–	–	–	–	–	–	–	–	reduced colony numbers	decreased numbers of erythroid colonies	−29	5/6	100
